# The source made the active and inactive calls. No cut-off for these calls is given here.
# Tests used:
# [1] = molecular target: GABA-B receptor (Homo sapiens) (UniProt Q9UBS5+O75899); experiment: Inhibition of mammalian Gamma-aminobutyric acid type B receptor (Inactive); format: protein-complex assay
# [2] = molecular target: T1, GABA-C receptor (Homo sapiens) (UniProt P28476+A8MPY1+P24046); experiment: Inhibition of mammalian Gamma-aminobutyric acid type C (GABA-C) receptor, partial agonist; format: functional
# T1 sequence (A8MPY1 whole entry, looked up): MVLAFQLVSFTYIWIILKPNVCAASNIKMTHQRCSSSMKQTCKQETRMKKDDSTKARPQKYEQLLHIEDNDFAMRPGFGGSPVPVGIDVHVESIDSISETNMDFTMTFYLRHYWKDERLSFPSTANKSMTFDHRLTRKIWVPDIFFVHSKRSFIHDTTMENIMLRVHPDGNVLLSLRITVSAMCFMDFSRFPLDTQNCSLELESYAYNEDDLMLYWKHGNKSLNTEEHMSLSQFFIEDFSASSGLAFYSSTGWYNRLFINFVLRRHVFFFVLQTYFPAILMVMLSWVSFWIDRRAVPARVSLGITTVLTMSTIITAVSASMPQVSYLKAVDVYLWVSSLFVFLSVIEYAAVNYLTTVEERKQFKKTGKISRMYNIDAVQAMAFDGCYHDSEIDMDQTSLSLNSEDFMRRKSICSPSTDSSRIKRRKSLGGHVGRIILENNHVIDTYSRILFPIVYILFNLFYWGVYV
# T1 sequence (P24046 whole entry, looked up): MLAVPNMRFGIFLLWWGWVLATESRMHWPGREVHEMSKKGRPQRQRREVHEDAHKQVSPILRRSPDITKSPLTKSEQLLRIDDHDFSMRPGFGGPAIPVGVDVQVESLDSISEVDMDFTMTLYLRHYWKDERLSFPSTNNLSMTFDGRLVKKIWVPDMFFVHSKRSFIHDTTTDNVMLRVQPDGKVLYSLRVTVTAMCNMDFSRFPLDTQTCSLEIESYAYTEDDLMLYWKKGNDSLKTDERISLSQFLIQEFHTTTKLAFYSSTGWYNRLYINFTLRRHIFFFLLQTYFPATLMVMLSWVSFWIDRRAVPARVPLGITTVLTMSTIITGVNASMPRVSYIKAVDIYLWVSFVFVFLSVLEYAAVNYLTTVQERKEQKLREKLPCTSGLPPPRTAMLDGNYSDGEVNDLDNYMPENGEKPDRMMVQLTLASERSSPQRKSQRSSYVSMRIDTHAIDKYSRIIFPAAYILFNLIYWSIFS
# T1 sequence (P28476 whole entry, looked up): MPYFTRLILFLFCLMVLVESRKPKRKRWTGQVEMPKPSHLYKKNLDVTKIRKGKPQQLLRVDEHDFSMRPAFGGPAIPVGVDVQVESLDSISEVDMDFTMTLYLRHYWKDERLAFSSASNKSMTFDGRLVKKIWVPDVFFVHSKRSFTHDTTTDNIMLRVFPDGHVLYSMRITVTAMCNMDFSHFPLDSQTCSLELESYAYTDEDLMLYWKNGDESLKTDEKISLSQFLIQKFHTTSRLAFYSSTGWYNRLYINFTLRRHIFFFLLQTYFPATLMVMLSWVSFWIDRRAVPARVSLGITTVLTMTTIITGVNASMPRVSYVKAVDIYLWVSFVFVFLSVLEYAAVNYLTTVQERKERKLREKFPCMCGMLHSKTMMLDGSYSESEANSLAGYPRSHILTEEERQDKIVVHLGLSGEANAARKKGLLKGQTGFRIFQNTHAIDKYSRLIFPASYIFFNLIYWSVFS
# [3] = molecular target: GABA-A receptor; anion channel; experiment: Inhibition of mammalian Gamma-aminobutyric acid A (GABA-A) receptor, agonist; format: functional
# [4] = molecular target: T1, GABA-C receptor (Homo sapiens); experiment: Inhibition of human Gamma-aminobutyric acid type C (GABA-C) receptor, potent antagonist; format: functional
# [5] = molecular target: GABA B receptor (Rattus norvegicus, UniProt O88871+Q9Z0U4); experiment: Inhibition of rat hippocampal Gamma-aminobutyric acid type B receptor (weak agonist); format: functional, tissue-based, Hippocampus
# Chain of GABA B receptor (Q9Z0U4 whole entry): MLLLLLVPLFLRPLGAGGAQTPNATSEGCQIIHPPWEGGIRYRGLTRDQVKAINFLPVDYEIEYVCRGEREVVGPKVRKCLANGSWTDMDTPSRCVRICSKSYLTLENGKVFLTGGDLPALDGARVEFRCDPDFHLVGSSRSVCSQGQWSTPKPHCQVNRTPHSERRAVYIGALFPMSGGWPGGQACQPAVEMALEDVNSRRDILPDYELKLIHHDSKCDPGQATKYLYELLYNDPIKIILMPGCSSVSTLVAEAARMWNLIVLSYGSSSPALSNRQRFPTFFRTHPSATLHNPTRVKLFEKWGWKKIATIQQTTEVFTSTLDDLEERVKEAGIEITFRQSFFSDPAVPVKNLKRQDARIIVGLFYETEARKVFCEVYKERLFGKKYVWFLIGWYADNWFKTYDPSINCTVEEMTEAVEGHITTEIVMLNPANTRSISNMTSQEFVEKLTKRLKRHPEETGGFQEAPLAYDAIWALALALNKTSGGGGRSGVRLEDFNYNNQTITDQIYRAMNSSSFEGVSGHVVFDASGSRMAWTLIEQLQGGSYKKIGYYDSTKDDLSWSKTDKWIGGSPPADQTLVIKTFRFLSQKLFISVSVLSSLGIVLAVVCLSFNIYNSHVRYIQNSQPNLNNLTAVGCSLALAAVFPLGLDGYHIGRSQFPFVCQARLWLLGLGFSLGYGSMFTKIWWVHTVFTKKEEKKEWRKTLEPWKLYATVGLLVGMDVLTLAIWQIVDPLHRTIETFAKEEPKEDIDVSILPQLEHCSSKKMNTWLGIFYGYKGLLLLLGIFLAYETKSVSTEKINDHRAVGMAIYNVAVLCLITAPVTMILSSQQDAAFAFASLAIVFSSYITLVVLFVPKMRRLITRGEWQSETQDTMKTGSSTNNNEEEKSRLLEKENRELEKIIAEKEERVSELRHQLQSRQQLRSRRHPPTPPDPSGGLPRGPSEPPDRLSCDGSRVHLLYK
# Chain of GABA B receptor (O88871 whole entry): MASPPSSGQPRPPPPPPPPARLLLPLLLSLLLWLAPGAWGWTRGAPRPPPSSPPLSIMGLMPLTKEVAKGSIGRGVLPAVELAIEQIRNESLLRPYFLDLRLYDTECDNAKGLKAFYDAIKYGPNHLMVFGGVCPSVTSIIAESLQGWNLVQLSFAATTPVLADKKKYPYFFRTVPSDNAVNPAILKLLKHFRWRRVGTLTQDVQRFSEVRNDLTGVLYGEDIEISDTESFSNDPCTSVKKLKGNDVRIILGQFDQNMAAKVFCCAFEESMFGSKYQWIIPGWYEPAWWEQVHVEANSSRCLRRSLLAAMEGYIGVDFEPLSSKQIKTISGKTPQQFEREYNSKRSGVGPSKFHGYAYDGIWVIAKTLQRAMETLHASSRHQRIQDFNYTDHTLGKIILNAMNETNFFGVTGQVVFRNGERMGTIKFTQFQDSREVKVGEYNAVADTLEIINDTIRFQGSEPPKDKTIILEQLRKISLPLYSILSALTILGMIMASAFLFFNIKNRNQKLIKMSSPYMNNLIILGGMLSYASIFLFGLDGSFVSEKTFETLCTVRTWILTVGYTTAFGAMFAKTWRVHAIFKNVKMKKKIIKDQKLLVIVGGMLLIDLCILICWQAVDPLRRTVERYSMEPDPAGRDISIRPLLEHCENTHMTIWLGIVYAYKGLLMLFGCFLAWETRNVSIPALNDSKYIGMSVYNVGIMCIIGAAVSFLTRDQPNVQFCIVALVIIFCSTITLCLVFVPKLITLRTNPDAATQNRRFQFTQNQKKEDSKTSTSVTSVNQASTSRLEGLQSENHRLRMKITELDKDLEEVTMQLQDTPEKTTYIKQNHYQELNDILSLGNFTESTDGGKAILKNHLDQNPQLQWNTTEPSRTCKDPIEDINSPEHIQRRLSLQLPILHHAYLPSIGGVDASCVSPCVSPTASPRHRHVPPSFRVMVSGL
# [6] = Inhibition of rat brain Gamma-aminobutyric acid A (GABA-A) receptor expressed in oocytes, weak antagonist; format: functional; settings: Oocyte
# [7] = molecular target: T1, GABA-C receptor (Homo sapiens); experiment: Inhibition of mammalian Gamma-aminobutyric acid type C (GABA-C) receptor, potent antagonist; format: functional
# [8] = molecular target: GABA-A receptor; anion channel (Homo sapiens) (UniProt P14867+P47870+P18507+P28472+P48169+Q99928+Q9UN88+P34903+O00591+O14764+Q8N1C3+P18505+P78334+P47869+P31644+Q16445); experiment: Inhibition of mammalian Gamma-aminobutyric acid A (GABA-A) receptor (inactive); format: protein-complex assay
compound,measurement,setting,value
O=C(O)C1=CCNCC1 [ISOGUVACINE],Activity,[1],inactive
same,Kb,[2],99 µM
same,EC50,[3],310 µM
CP(=O)(O)C1=CCNCC1,Kb,[4],2.1 µM
same,EC50,[5],500 µM
same,Kb,[6],320 µM
CP(=O)(O)CCCN,Kb,[7],0.8 µM
same,Activity,[8],inactive

# Source: ChEMBL document CHEMBL1150031, “The first selective antagonist for a GABAC receptor” (Bioorg Med Chem Lett, 1996)
